{
  "source": "patent US7629308B2",
  "about": "“Methods relating to muscle selective calcineurin interacting protein (MCIP)” (Board of Regents, The University of Texas System, priority 2000, dated 2009)",
  "key": {"[1]": {"system": "cardiac hypertrophy", "test": "Cardiac hypertrophy after isoproterenol infusion or wheel running exercise", "assay_type": "in vivo, mouse", "procedure": "Intact animal studies: In addition to the genetic cross to α-MHC-CnA* animals, α-MHC-hMCIP1 transgenic mice and wild-type littermates were subjected to two independent stimuli known to provoke cardiac hypertrophy. Twelve-week old and 28-week old male mice were surgically implanted with a subcutaneous mini-osmotic pump (Alzet model 2001) that released isoproterenol in 0.9% NaCl at a rate of 28 mg per hour per […] of body weight over a seven day period. Control pumps delivered a 0.9% NaCl solution. Hearts were harvested on day eight. The heart body weight ratio (htw/bw) of isoproterenol-treated, animals were compared to the mean htw/bw ratio of age matched saline-treated animals of the same genotype. For exercise-induced hypertrophy, 28-week old male animals were placed in individual cages where they had free access to a running wheel. The number of revolutions was monitored continuously for 28 days. The animals ran an average of 3 to 5 kilometers a day. The heart body weight ratios (htw/bw) of the exercised animals were compared to the mean htw/bw ratios of age-matched sedentary animals of the same genotype. A Wilcoxon rank sum test was used to determine statistically significant differences among treatment groups (p<0.05). All animal protocols were reviewed and approved by the appropriate institutional review boards."}, "[2]": {"biological_target": "T1, calcineurin A (Mus musculus, UniProt P63328)", "T1 construct": "calcineurin A (amino acids 1-398) was translated in rabbit reticulocyte lysates; made in house; host or cells: calcineurin A: rabbit reticulocyte lysate (TNT coupled transcription/translation, Promega); GST-MCIP1: bacteria (pGEX-CS)", "test": "In vitro protein-protein interaction assay (GST pull-down)", "assay_type": "binding", "procedure": "In Vitro Protein-Protein Interaction Assays—GST and GST-MCIP1 fusion proteins were prepared as described previously (Grayson et al., 1998). [^35S]Methionine labeled CnA398, CnA342, and CnA266 were produced in the TNT coupled in vitro transcription/translation system (Promega). For in vitro binding assays, equivalent amounts of GST fusion proteins bound to glutathione were resuspended in 500 μl of binding buffer (20 mM Tris, pH 7.5, 100 mM KCl, 0.1 mM EDTA, 0.05% Nonidet P-40, 10% glycerol, and 1 mg/ml bovine serum albumin). [^35S]Methionine-labeled CnA proteins were added to the resuspended GST fusion proteins and incubated for 1 h. The beads were then spun down and washed three times in binding buffer. An equal volume of 2×SDS-PAGE loading buffer was added, and the suspension was boiled for 3 min. The bound proteins were then resolved on SDS-PAGE and visualized by autoradiography. ^35S-Labeled luciferase protein (Promega) was used as a negative control. For estimation of binding efficiency, 25% of the radiolabeled protein was loaded as an input control."}, "[3]": {"system": "constitutively active form of NFATc", "test": "IL-2-luc reporter driven by constitutively active NFAT in C2C12 cells", "assay_type": "cell-based, mouse", "source_text": "(§1) GST-MCIP1 fusions were expressed from the bacterial expression plasmid pGEX-CS (T. D. Parks, et al. 1994). Luciferase reporter plasmids, Mb-luc and IL-2-luc, were constructed in pGL3 (Promega) by inserting promoter/enhancer regions from genes encoding human myoglobin (Chin et al., 1998) or IL-2 (Clipstone et al., 1992), respectively. In addition, a synthetic enhancer consisting of three copies of a high affinity MEF2 binding sequence from the desmin promoter (Naya et al., 2000) was linked to a minimal promoter (hsp68) and inserted into pGL3 yielding the des-MEF-luc reporter. The β-galactosidase reporter plasmid pCMV-lacZ (J. Grayson, et al. 1998), and expression vectors encoding constitutively active forms of NFAT (Molkentin et al., 1998), calcineurin (CnA*) (Chin et al., 1998, O'Keefe et al., 1992), or calmodulin dependent protein kinase type IV (CaMKIV) (Ho et al., 1996), were previously described. The identity of plasmid constructions was confirmed by restriction mapping and partial DNA sequencing.\n(§2) Myoblasts were harvested 24 h after transfection."}, "[4]": {"system": "Gal4-VP16", "conditions": "C2C12 cells", "quoted_text": "Tissue Culture, Cell Transfection, and Reporter Gene Assays—C2C12 myoblasts were grown in Dulbecco's modified Eagle's medium supplemented with 20% fetal bovine serum and antibiotics (100 units of penicillin and 100 g of streptomycin/ml). Myotube formation was induced by switching confluent cells to differentiation media (Dulbecco's modified Eagle's medium supplemented with 2% heat-inactivated horse serum) for 48-72 h. For transient transfection assays, C2C12 cells were plated 12 h before transfection in 12-well tissue culture dishes at 5×10^4 cells/well, and transfected with a total of 0.5 μg of plasmid DNA using LipofectAMINE Plus (Life Technologies, Inc.). Myoblasts were harvested 24 h after transfection. Myotubes were obtained by shifting cultures to differentiation media 24 h after transfection and harvesting 48 h later. To stimulate transfected cells, 1 μM ionomycin and 10 ng/ml phorbol myristate acetate (PMA) were added 4.5 h prior to harvesting. Luciferase assays of whole cell extracts were conducted as described previously (Yang et al., 1997)."}, "[5]": {"system": "calcineurin", "test": "Luciferase reporter assays of calcineurin-dependent transcription in C2C12 cells", "assay_type": "cell-based, mouse", "source_text": "as §1, §2\nCell culture studies: C2C12 myoblasts were maintained and transfected as previously described (Rothermel et al., 2000). Luciferase assays of whole cell extracts were performed as previously described (Rothermel et al., 2000). All results were corrected for variations in transfection efficiency by normalization to expression of a cotransfected pCMV-LacZ plasmid."}, "[6]": {"system": "MCIP1 mRNA", "test": "Northern blot of MCIP1 mRNA in mouse heart and soleus", "assay_type": "in vivo", "procedure": "(§3) Animal experiments: Lines of transgenic mice in which the cc myosin heavy chain promoter is used to drive expression of a constitutively active form of calcineurin selectively in the heart were generated and described previously (Molkentin et al., 1998). Wildtype male C57B1/6 mice were injected intraperitoneally with 3, 5, 3′-triiodothyromine (T3) ([…]) or an equal volume of 0.9% saline once a day for ten days (Robbins & Swain, 1992). All experiments involving animals were conducted using IACRAC-approved protocols.\n(§4) RNA isolation and Northern blot analysis: Total RNA was prepared from mouse tissues or C2C12 cells using Tripure (Boehringer Mannheim, Inc.) following the manufacturer's protocol. Northern blot analysis was performed with […] of total RNA in each lane and probed in Ultrahyb (Ambion) with complementary sequences representing the 3′ UTR of MCIP1 (common to all known splicing variants), exon 1 of MCIP1, exon 4 of MCIP1, or ORF segments of MCIP2 or GAPDH cDNA. Probes were generated by PCR and labeled as described previously (Rothermel et al., 2000). Signals from Northern blots were detected on a Storm PhosphorImager (Molecular Dynamics) and quantified using ImageQuant (version 1.2)."}, "[7]": {"system": "MCIP2 mRNA", "test": "Northern blot of MCIP2 mRNA in mouse heart and soleus", "assay_type": "in vivo", "procedure": "as §3, §4"}, "[8]": {"system": "cardiac hypertrophy", "test": "Hyperthyroid cardiac hypertrophy induced by T3 injection", "assay_type": "in vivo, mouse", "conditions": "ten days i.p.; n=4", "procedure": "as §3"}, "[9]": {"system": "MCIP2 mRNA", "test": "Northern blot of MCIP2 mRNA in C2C12 cells", "assay_type": "cell-based, mouse", "procedure": "(§5) Tissue culture, cell transfection or infection, reporter gene assays: C2C12 myoblasts and myotubes were cultured as previously described (Grayson et al, 1995). Ionomycin ([…]) and cyclosporin A (50 to 200 nM) were added 4 hrs prior to harvesting the cells. When included, cyclohexamide (25 mM) was added 15 min prior to ionomycin. Transient transfection with plasmids or infection with recombinant, replication-defective adenoviruses, and luciferase assays were performed as previously reported (Chin et al, 1998; Rothermel et al., 2000; Wu et al., 1973).\nas §4"}, "[10]": {"system": "MCIP1 mRNA", "test": "Northern blot of MCIP1 mRNA in C2C12 cells", "assay_type": "cell-based, mouse", "procedure": "as §5, §4"}, "[11]": {"conditions": "Heart, i.p. once a day for ten days"}, "[12]": {"conditions": "Soleus, pooled muscles from two animals"}, "[13]": {"conditions": "C2C12, single culture dish, normalized to GAPDH mRNA"}},
  "note": "Several values for one entry are separate records, joined by “and”; a condition that tells them apart may be missing. Equal entries are not always repeated.",
  "data": [
    {"compound": "CC(C)NCC(O)c1ccc(O)c(O)c1", "note": "(stereo not shown) [isoproterenol]", "values": [
      {"measurement": "percent increase in heart weight to body weight ratio", "setting": "[1]; male wild-type mice, isoproterenol by osmotic minipump over seven days", "result": "22.8±1.95", "unit": "%"}
    ]},
    {"compound": "MCIP1: myocyte-enriched calcineurin interacting protein 1, product of human gene DSCR1; expressed from transfected plasmid or transgene", "values": [
      {"measurement": "binding to CnA(342)", "setting": "[2]; lacks calmodulin and calcineurin B binding regions", "result": "did not disrupt the interaction"},
      {"measurement": "binding to CnA(266)", "setting": "[2]; lacks carboxyl-terminal half of the catalytic domain", "result": "no longer capable of binding"},
      {"measurement": "effect on transcriptional activation mediated by NFAT (IL-2-luc)", "setting": "[3]", "result": "does not inhibit"},
      {"measurement": "effect on Gal4-VP16 induction of UASg-TATA-luc", "setting": "[4]", "result": "not affected"},
      {"measurement": "effect on activation of the des-MEF2-luc reporter by CnA* alone or CnA* with CaMKIV", "setting": "[5]; C2C12 cells", "result": "inhibited"},
      {"measurement": "effect on calcineurin response of the MCIP1 (−874 to +30)-luciferase reporter", "setting": "[5]; C2C12 cells, not shown", "result": "represses this response"},
      {"measurement": "effect on activation of IL-2 and Mb enhancer constructs by CnA*", "setting": "[5]; C2C12 myoblasts and myotubes", "result": "abolished"},
      {"measurement": "inhibition of calcineurin induction of the IL-2-Luc reporter gene", "setting": "[5]; C2C12 myoblasts, pCMV-CnA*", "result": "almost completely inhibit"},
      {"measurement": "effect alone on activity of reporter constructs", "setting": "[5]; TATA-luc, IL-2-luc, Mb-luc, no CnA*", "result": "no effect"},
      {"measurement": "effect on PMA/ionophore activation of the myoglobin enhancer (Mb-luc)", "setting": "[5]; endogenous calcineurin, C2C12 myoblasts and myotubes", "result": "inhibited"},
      {"measurement": "percent increase in heart weight to body weight ratio", "setting": "[1]; α-MHC-hMCIP1 transgenic mice, isoproterenol over seven days", "result": "9.4±0.87", "unit": "%"}
    ]},
    {"compound": "N[C@@H](Cc1cc(I)c(Oc2ccc(O)c(I)c2)c(I)c1)C(=O)O", "note": "[T3, 3,5, 3′-triiodothyromine]", "values": [
      {"measurement": "MC1P1 (fold change in mRNA), Response to Thyroid Hormone", "setting": "[6]; [11]", "result": "1.05 fold and 0.87 fold and 1.08 fold"},
      {"measurement": "MC1P1 (fold change in mRNA), Response to Thyroid Hormone", "setting": "[6]; [12]", "result": "0.78 fold and 1.05 fold and 1.24 fold"},
      {"measurement": "T3 Effect, MC1P1 (aggregate fold change, mean ±SE)", "setting": "[6]; heart and soleus", "result": "1.01 ± 0.06", "unit": "fold"},
      {"measurement": "expression of MCIP1 in hyperthyroid hearts", "setting": "[6]; heart, ten days", "result": "unaltered"},
      {"measurement": "MC1P2 (fold change in mRNA), Response to Thyroid Hormone", "setting": "[7]; [11]", "result": "1.59 fold and 1.81 fold and 1.71 fold"},
      {"measurement": "MC1P2 (fold change in mRNA), Response to Thyroid Hormone", "setting": "[7]; [12]", "result": "1.72 fold and 2.21 fold and 1.62 fold"},
      {"measurement": "increase of MCIP2 transcript levels", "setting": "[7]; both heart and soleus skeletal muscles", "result": "approximately 2 fold"},
      {"measurement": "T3 Effect, MC1P2 (aggregate fold change, mean ±SE)", "setting": "[7]; heart and soleus", "result": "1.78 ± 0.01", "unit": "fold"},
      {"measurement": "mean heart weight", "setting": "[8]", "result": 180, "unit": "mg"},
      {"measurement": "mean heart weight/body weight ratio", "setting": "[8]", "result": 7.2, "unit": "mg/gm"}
    ]},
    {"compound": "C[C@H](CCC(=O)O)C[C@H](C)C[C@H](C)C(=O)/C=C(\\O)[C@H](C)C[C@H](C)C/C=C/[C@@H](C)[C@@H](O)[C@@H](C)[C@@H](O)C[C@@H]1CC[C@@](C)([C@H]2CC[C@@](C)([C@@H](C)O)O2)O1", "note": "[Ionomycin, ionomycin]", "values": [
      {"measurement": "MC1P2 (fold change in mRNA), Response to Calcineurin Activation", "setting": "[9]; [13]", "result": "0.94 fold and 1.00 fold and 1.12 fold"},
      {"measurement": "expression of MCIP2 mRNA", "setting": "[9]; C2C12 cells", "result": "unaffected"},
      {"measurement": "MC1P1 (fold change in mRNA), Response to Calcineurin Activation", "setting": "[10]; [13]", "result": "2.42 fold and 1.94 fold and 1.26 fold"},
      {"measurement": "up-regulation of MCIP1 mRNA in the presence of cyclohexamide", "setting": "[10]; C2C12 cells, cyclohexamide added 15 min prior", "result": "~10", "unit": "fold"},
      {"measurement": "induction of MCIP1 mRNA", "setting": "[10]; C2C12 myoblasts or myotubes, cyclohexamide absent", "result": 2, "unit": "fold"},
      {"measurement": "increase of MCIP1 mRNA in the absence of cyclosporin", "setting": "[10]; compared to cells treated with the highest dose of cyclosporin", "result": 4, "unit": "fold"}
    ]}
  ]
}
